The values that follow come from patent US20260317312A1, “ISOXAZOLIDINES AS RIPK1 INHIBITORS AND USE THEREOF” (GENZYME CORPORATION, priority 2023, published 2026).

A word on the IC50: it is the concentration needed to halve the response being measured. Read a low IC50 as higher potency.

One test relates to U937 cells. Put plainly: Cellular assay in U937 cells to measure activity of RIPK1-inhibitors on cell death (necroptosis). Format: cell-based. As to conditions: overnight (18 to 24 hrs), 37° C., MTS readout. The source says:
Upon TNF-Receptor I ligation, Ser/Thr kinase RIPK1 is recruited to a transient receptor complex I. Upon modification of RIPK1 which promotes activation of RIPK1, complex lib can form, that involves recruitment of RIPK3 and MLKL (mixed lineage-kinase domain-like protein) which then translocates from the cytosol to the plasma membrane to execute cell death (Cai, Z. et al, Nat. Cell Biol. (2014)16:55-65).
Cell death was quantified in 96 well plates by determination of the amount of live cell using a CellTiter 96 Aqueous reagent (Promega), a calorimetric method to measure the number of live cells by reducing tetrazolium compound [3-(4,5-dimethylthiazol-2-yl)-5-(3-carboxymethoxyphenyl)-2-(4-sulfophenyl)-2H-tetrazolium, inner salt; MTS] into formazan. Absorbance of formazan was read at 490 nm. The inhibitory activity of the test compound was quantified in a concentration response curve (CRC) experiment.
Compounds were obtained as 10 mM stock solutions and were diluted 1 to 10 volumes with DMSO to yield a 1 mM solution. From this solution 2 μl were diluted with 998 μl growth medium. 100 μl of 2 μM compound solution was further diluted sequentially with a dilution factor of 2.5 by adding 150 μl growth medium. A total of 10 concentrations were tested ranging from 10 μM to 0.26 nM or from 1 μM to 0.07 nM.
U937 cells were cultured in RPM11640 Glutamax and 10% heat inactivated FBS. 50 μl cell suspension containing 1×10^6 cells/ml supplemented with 50 μM zVAD.fmk (Benzyloxycarbonyl-Val-Ala-Asp (Ome) fluoromethylketone) and 100 ng/ml recombinant human TNFα were dispensed in each well of a 96-well plate. 50 μl of compound dilutions (described in Cellular assay in U937 cells) were added and the cell suspension incubated overnight (18 to 24 hrs) at 37° C., 5% CO2 in a humidified atmosphere (95% rH). High (no compound) and low control (no TNFα, zVAD.fmk) were tested with 7 replicates; all compound concentrations were tested in duplicates on each experimental plate.
CellTiter 96 Aqueous reagent was mixed (100 μl PMS (phenazine methosulfate) solution/2 ml MTS (3-(4,5-[…])-5-(3-carboxymethoxyphenyl)-2-(4-sulfophenyl)-2H-tetrazolium, inner salt) solution) and 20 μl were added per well. After 4 hrs incubation at 37° C. (5% CO2 95% rH) optical density was measured at 490 nm on a microplate reader (Tecan Infinite M1000).
The % inhibition is expressed as percentage of the maximal inhibition value obtained in the absence of TNFα/zVAD.fmc.

Test [1] has as its target T1, hRIPK1 (aa 1-375) fusion protein (Homo sapiens, UniProt Q13546).
T1 construct: hRIPK1 (aa 1-375) fusion protein
T1 sequence (Q13546 1-375): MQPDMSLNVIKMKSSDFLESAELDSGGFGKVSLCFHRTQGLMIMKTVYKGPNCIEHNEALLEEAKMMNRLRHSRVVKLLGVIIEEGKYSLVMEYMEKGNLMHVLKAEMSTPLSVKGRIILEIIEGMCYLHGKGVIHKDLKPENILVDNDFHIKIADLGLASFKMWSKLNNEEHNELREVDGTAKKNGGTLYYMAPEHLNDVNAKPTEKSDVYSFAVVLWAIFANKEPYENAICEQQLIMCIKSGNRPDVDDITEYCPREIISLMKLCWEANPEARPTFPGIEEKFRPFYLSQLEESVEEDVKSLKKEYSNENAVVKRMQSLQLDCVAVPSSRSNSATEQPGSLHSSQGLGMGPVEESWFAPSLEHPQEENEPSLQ
As to the kind of experiment: Receptor-Interacting Protein Kinase 1 inhibition, ADP Glo assay (conversion of ATP to ADP due to autophosphorylation). Particulars: ATP 50 μM, 30 min preincubation, 240 min incubation, room temperature, DMSO 1%. Format: biochemical. As for the experimental part:
The catalytic activity of RIPK1 was measured by monitoring the conversion of Adenosine triphosphate (ATP) to Adenosine diphosphate (ADP) due to autophosphorylation using an ADP-Glo kinase kit (Promega, catalog no. V9104).
In detail, 2 μl recombinantly produced hRIPK1 (aa 1-375) fusion protein (end concentration 3.6 μg/ml) and 2 μl compound (end concentration 33300-1.69 nM; DMSO end concentration 1%) were incubated for 30 minutes at room temperature and then 2 μl ATP (ADP Glo kit, end concentration 50 μM) were added. After another 240 minutes incubation at room temperature, 5 μl Promega ADP-Glo reagent I was added to quench the reaction and deplete unconsumed ATP. After an incubation period of 30 minutes, 10 μl Promega ADP-Glo detection reagent II was added resulting in conversion of ADP to ATP, which generates a light-reaction between luciferase and luciferin. Luminescence was quantified after 30 minutes with a Pherastar FS (BMG LABTECH, Ortenberg).
The adjustment was obtained by nonlinear regression using the Levenberg Marquardt algorithm.

Setting [2] is: Homo sapiens, U-937, TNFα/zVAD.fmk induced cell death (necroptosis).
Where [3] appears, read: TNFα/zVAD.fmk induced cell death (necroptosis).

Consider `N#Cc1cc(OC[C@H]2CC[C@@H](C(=O)N3OCC[C@H]3c3cc(F)cc(F)c3)CC2)ncn1` [Compound 55, cis-6-((4-((S)-3-(3,5-difluorophenyl)isoxazolidine-2-carbonyl)cyclohexyl)methoxy)pyrimidine-4-carbonitrile], for which the IC50 was determined as 1530 nM in the test on U937 cells (setting [2]) and 56 nM in test [1].
Taken in the same sequence, the figures for `CCOC(=O)c1ncnc(N[C@H]2C[C@@](C)(C(=O)N3OCC[C@H]3c3cc(F)cc(F)c3)C2)c1F` [Compound 8, ethyl cis-6-((3-((S)-3-(3,5-difluorophenyl)isoxazolidine-2-carbonyl)-3-methylcyclobutyl)amino)-5-fluoropyrimidine-4-carboxylate] were 196 nM and 25 nM.
For the compound `N#Cc1ccc(OC[C@H]2CC[C@H](C(=O)N3OCC[C@H]3c3cncc(C#N)c3)CC2)nc1` [Compound 95, trans-5-((S)-2-(4-(((5-cyanopyridin-2-yl)oxy)methyl)cyclohexane-1-carbonyl)isoxazolidin-3-yl)nicotinonitrile], the figures for the IC50 (in the test on U937 cells (setting [2]); in test [1]) were 35 nM and 15 nM, respectively.
As for `O=C([C@H]1CC[C@H](COc2cc(Cl)ncn2)CC1)N1OCC[C@H]1c1cc(F)cc(F)c1` [Compound 46, trans-(4-(((6-chloropyrimidin-4-yl)oxy)methyl)cyclohexyl)((S)-3-(3,5-difluorophenyl)isoxazolidin-2-yl)methanone], the results for the IC50 (with U937 cells (setting [2]); in test [1]) were 14 nM and 41 nM, respectively.
Turning to `O=C1CCCN1c1ccc(Cl)c(OC[C@H]2CC[C@H](C(=O)N3OCC[C@H]3c3cc(F)cc(F)c3)CC2)c1` [Compound 60, trans-1-(4-chloro-3-((4-((S)-3-(3,5-difluorophenyl)isoxazolidine-2-carbonyl)cyclohexyl)methoxy)phenyl)pyrrolidin-2-one], the values for the IC50 (in the test on U937 cells (setting [2]); in test [1]) were 112 nM and 76 nM, respectively.
Turning to `Cc1cc(C)n(-c2ccc(OC[C@H]3CC[C@H](C(=O)N4OCC[C@H]4c4cncc(C#N)c4)CC3)c(F)c2)n1` [Compound 90, trans-5-((S)-2-(4-((4-(3,5-dimethyl-1H-pyrazol-1-yl)-2-fluorophenoxy)methyl)cyclohexane-1-carbonyl)isoxazolidin-3-yl)nicotinonitrile], the IC50 in the test on U937 cells (setting [2]) was 23 nM; in test [1], 21 nM.
Regarding `NC(=O)c1cc(OCC2CCCC(C(=O)N3OCC[C@H]3c3cc(F)cc(F)c3)CC2)ncn1` (single isomer, unassigned; stereoisomer 1) [Compound 122], the IC50 is 30 nM in the test on U937 cells (setting [3]) and 17 nM in test [1].
Consider `N#Cc1cc(OC[C@H]2CC[C@@H](C(=O)N3OCC[C@H]3c3cc(F)cc(F)c3)CC2)ccc1F` [Compound 52, cis-5-((4-((S)-3-(3,5-difluorophenyl)isoxazolidine-2-carbonyl)cyclohexyl)methoxy)-2-fluorobenzonitrile], for which the results for the IC50 (in the test with U937 cells (setting [2]); in test [1]) were 6 nM and 18 nM, respectively.
Taken in the same sequence, the figures for `N#Cc1cc(F)cc(OC[C@H]2CC[C@H](C(=O)N3OCC[C@H]3c3cc(F)cc(F)c3)CC2)c1` [Compound 48, trans-3-((4-((S)-3-(3,5-difluorophenyl)isoxazolidine-2-carbonyl)cyclohexyl)methoxy)-5-fluorobenzonitrile] were 13 nM and 44 nM.
For the compound `N#Cc1cc(F)cc([C@@H]2CCON2C(=O)[C@H]2C[C@@H](n3cnc4ccccc43)C2)c1` [Compound 40, cis-3-((S)-2-(3-(1H-benzo[d]imidazol-1-yl)cyclobutane-1-carbonyl)isoxazolidin-3-yl)-5-fluorobenzonitrile], the IC50 in the test with U937 cells (setting [2]) amounted to 262 nM; in test [1], 18 nM.
In the same order, the values of `CCOC(=O)c1ncnc(Cl)c1N[C@H]1C[C@@](C)(C(=O)N2OCC[C@H]2c2cc(F)cc(F)c2)C1` [Compound 9, ethyl cis-6-chloro-5-((3-((S)-3-(3,5-difluorophenyl)isoxazolidine-2-carbonyl)-3-methylcyclobutyl)amino)pyrimidine-4-carboxylate] are 757 nM and 366 nM.
Regarding `NC(=O)c1ccnc(C2CCC(C(=O)N3OCC[C@H]3c3cc(F)cc(F)c3)C2)c1` (single isomer, unassigned) [Compound 114], the IC50 stood at 816 nM in the test on U937 cells (setting [2]) and 132 nM in test [1].
Turning to `NC(=O)c1ccc(OC[C@H]2CC[C@H](C(=O)N3OCC[C@H]3c3cnccn3)CC2)c(F)c1` [Compound 113, trans-3-fluoro-4-[[4-[(3S)-3-pyrazin-2-ylisoxazolidine-2-carbonyl]cyclohexyl]methoxy]benzamide], the IC50 was 97 nM with U937 cells (setting [2]) and 38 nM in test [1].
In the same order, the values of `Cc1cc(C)n(-c2ccc(OC[C@H]3CC[C@H](C(=O)N4OCC[C@H]4c4cc(F)cc(C#N)c4)CC3)c(F)c2)n1` [Compound 76, trans-3-((S)-2-(4-((4-(3,5-dimethyl-1H-pyrazol-1-yl)-2-fluorophenoxy)methyl)cyclohexane-1-carbonyl)isoxazolidin-3-yl)-5-fluorobenzonitrile] are 47 nM and 47 nM.
Turning to `N#Cc1cc(OC[C@H]2CC[C@H](C(=O)N3OCC[C@H]3c3cc(F)cc(F)c3)CC2)ncn1` [Compound 45, trans-6-((4-((S)-3-(3,5-difluorophenyl)isoxazolidine-2-carbonyl)cyclohexyl)methoxy)pyrimidine-4-carbonitrile], the IC50 with U937 cells (setting [2]) stood at 38 nM; in test [1] it was 44 nM.
Taken in the same sequence, the figures for `Cc1nc([C@@H]2CCON2C(=O)[C@H]2CC[C@H](COc3cccc(C(N)=O)c3)CC2)cs1` [Compound 130, trans-3-[[4-[(3S)-3-(2-methylthiazol-4-yl)isoxazolidine-2-carbonyl]cyclohexyl]methoxy]benzamide] were 98 nM and 37 nM.
With `NC(=O)c1cc(OCC2CCCC(C(=O)N3OCC[C@H]3c3cc(F)cc(F)c3)CC2)ncn1` (single isomer, unassigned; stereoisomer 2) [Compound 123], the IC50 in the test on U937 cells (setting [3]) amounted to 24 nM; in test [1], 14 nM.
For the compound `N#Cc1cncc([C@@H]2CCON2C(=O)[C@H]2CC[C@H](COc3ccc(F)c(C(N)=O)c3)CC2)c1` [Compound 74, trans-5-((4-((S)-3-(5-cyanopyridin-3-yl)isoxazolidine-2-carbonyl)cyclohexyl)methoxy)-2-fluorobenzamide], the IC50 in the test on U937 cells (setting [2]) was found to be 82 nM; in test [1] it was 24 nM.
Take `N#Cc1cc(F)cc([C@@H]2CCON2C(=O)[C@H]2CC[C@@H](Nc3cc(C#N)ncn3)CC2)c1` [Compound 28, cis-6-((4-((S)-3-(3-cyano-5-fluorophenyl)isoxazolidine-2-carbonyl)cyclohexyl)amino)pyrimidine-4-carbonitrile]: half-maximal inhibition in test [1] (IC50) required 162 nM.
